Data from patent publication US8969554B2, “6-acyl-1,2,4-triazine-3,5-dione derivative and herbicides” (Kumiai Chemical Industry Co., Ltd., priority 2010, dated 2015).

Key:
Format in all cases: in vivo
Setaria viridis = experiment: Herbicidal activity by field foliage treatment (Test example 3); settings: 1000 g effective component per hectare, day 14 after the treatment;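 note: index 0 to 10 in 10% steps of herbicidal effect with 10 meaning complete death and 0 below 10%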
Experimental: Test example 3 Test for Determining Herbicidal Activity by Field Foliage Treatment A 80 cm^2 wide plastic pot was filled with a field soil and seeds of each of Indian millet and A. retroflexus were sowed and then incubated for 2 weeks in a green house. The wettable powder produced with reference to the Formulation example 1 was diluted water, and applied from the air to entire body of the plant as foliage treatment by using a small sprayer in an amount of 1000 liters per hectare so that the effective component is 1000 g per hectare. After that, the plants were cultivated in a greenhouse, and on day 14 after the treatment, evaluation was made by the criteria described in Table 72 for determining the herbicidal effects.

Indian millet [1] = experiment: as above; design: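 index 0 to 10 in 10% steps of herbicidal effect with 10 meaning complete death and 0 below 10%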; settings: 1000 g effective component per hectare, day 14 after the treatment
Method in brief: (§1)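 Plants were grown from seed in field soil in a greenhouse for 2 weeks, then sprayed over the whole foliage with a water-diluted wettable powder at 1000 L/ha spray volume, delivering 1000 g active ingredient per hectare. Herbicidal effect was scored on day 14 after treatment.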

A. retroflexus [2] = experiment: as above; design: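 index 0 to 10 in 10% steps of herbicidal effect with 10 meaning complete death and 0 below 10%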; settings: 1000 g effective component per hectare, day 14 after the treatment
Method in brief: as §1

Scirpus juncoides Rocxb. = experiment: Herbicidal activity by paddy field soil treatment (Test Example 1); design: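 index 0 to 10 in 10% steps of herbicidal effect with 10 meaning complete death and 0 below 10%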; settings: applied on water surface, 1000 g of effective component per hectare, day 21 after the treatment
Method in brief: (§2)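 Seeds were sown in puddled paddy soil in pots flooded to 3 cm water depth; the next day a water-diluted wettable powder was applied to the water surface at 1000 g active ingredient/ha. Plants were grown in a greenhouse and herbicidal effect scored by graded criteria on day 21 after treatment.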

Monochoria vaginalis = experiment: as above; design: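 index 0 to 10 in 10% steps of herbicidal effect with 10 meaning complete death and 0 below 10%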; settings: 1000 g of effective component per hectare, evaluated on day 21 after the treatment, criteria of Table 72
Method in brief: as §2

Echinochloa oryzicola = experiment: as above; design: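 index 0 to 10 in 10% steps of herbicidal effect with 10 meaning complete death and 0 below 10%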; settings: 1000 g of effective component per hectare, evaluated on day 21 after the treatment, criteria of Table 72
Method in brief: as §2

Echinochloa crus-galli [3] = experiment: Herbicidal activity by field foliage treatment (Test example 3); design: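 index 0 to 10 in 10% steps of herbicidal effect with 10 meaning complete death and 0 below 10%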; settings: 1000 g effective component per hectare, day 14 after the treatment
Method in brief: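 Potted field-soil plants grown 2 weeks in a greenhouse were sprayed over the whole foliage with diluted wettable powder at 1000 L/ha, delivering 1000 g active ingredient per hectare. Herbicidal effect scored by visual criteria 14 days after treatment.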

Indian millet [4] = experiment: Herbicidal activity by field soil treatment (Test example 2); design: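 index 0 to 10 in 10% steps of herbicidal effect with 10 meaning complete death and 0 below 10%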; settings: 1000 g effective component per hectare, day 21 after the treatment
Method in brief: (§3)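 Seeds were sown in field soil in 80 cm^2 pots and covered with soil. A water-diluted wettable powder was then sprayed onto the soil surface at 1000 liters per hectare, delivering 1000 g active ingredient per hectare. Plants grew in a greenhouse, and herbicidal effect was scored against set criteria 21 days after treatment.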

A. retroflexus [5] = experiment: as above; design: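 index 0 to 10 in 10% steps of herbicidal effect with 10 meaning complete death and 0 below 10%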; settings: 1000 g effective component per hectare, day 21 after the treatment
Method in brief: as §3

Echinochloa crus-galli [6] = experiment: as above; design: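 index 0 to 10 in 10% steps of herbicidal effect with 10 meaning complete death and 0 below 10%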; settings: 1000 g effective component per hectare, day 21 after the treatment
Method in brief: as §3

Cn1nc(C(=O)O)c(=O)n(-c2c(F)c(F)cc(F)c2F)c1=O [V-363]
herbicidal effect index, Setaria viridis (Setaria viridis): 10 | herbicidal effect index, Abutilon theophrasti (Indian millet [1]): 10 | herbicidal effect index, Amaranthus retroflexus (A. retroflexus [2]): 10 | herbicidal effect index, S. juncoides Rocxb. (Scirpus juncoides Rocxb.): 10 | Herbicidal effects index number, Monochoria vaginalis (Monochoria vaginalis): 10 | Herbicidal effects index number, Echinochloa oryzicola (Echinochloa oryzicola): 10 | herbicidal effect index, Echinochloa crus-galli (Echinochloa crus-galli [3]): 10

Cn1nc(C(=O)C2=C(O)CCCC2=O)c(=O)n(-c2cc(C(F)(F)F)cc(C(F)(F)F)c2)c1=O [I-470]
herbicidal effect index, Setaria viridis (Setaria viridis): 9 | herbicidal effect index, Abutilon theophrasti (Indian millet [1]): 10 | herbicidal effect index, Amaranthus retroflexus (A. retroflexus [2]): 10 | herbicidal effect index, S. juncoides Rocxb. (Scirpus juncoides Rocxb.): 10 | Herbicidal effects index number, Monochoria vaginalis (Monochoria vaginalis): 10 | Herbicidal effects index number, Echinochloa oryzicola (Echinochloa oryzicola): 10 | herbicidal effect index, Echinochloa crus-galli (Echinochloa crus-galli [3]): 8 | herbicidal effect index, Abutilon theophrasti (Indian millet [4]): 7 | herbicidal effect index, Amaranthus retroflexus (A. retroflexus [5]): 8

Cn1nc(C(=O)O)c(=O)n(CC(=O)C(C)(C)C)c1=O [V-362]
herbicidal effect index, Setaria viridis (Setaria viridis): 9 | herbicidal effect index, Abutilon theophrasti (Indian millet [1]): 10 | herbicidal effect index, Amaranthus retroflexus (A. retroflexus [2]): 10 | herbicidal effect index, S. juncoides Rocxb. (Scirpus juncoides Rocxb.): 10 | Herbicidal effects index number, Monochoria vaginalis (Monochoria vaginalis): 10 | Herbicidal effects index number, Echinochloa oryzicola (Echinochloa oryzicola): 10 | herbicidal effect index, Echinochloa crus-galli (Echinochloa crus-galli [3]): 9 | herbicidal effect index, Amaranthus retroflexus (A. retroflexus [5]): 7

O=C1CCCC(O)=C1C(=O)c1nn(C(F)F)c(=O)n(-c2ccccc2)c1=O [I-261]
herbicidal effect index, Setaria viridis (Setaria viridis): 7 | herbicidal effect index, Abutilon theophrasti (Indian millet [1]): 10 | herbicidal effect index, Amaranthus retroflexus (A. retroflexus [2]): 10 | herbicidal effect index, S. juncoides Rocxb. (Scirpus juncoides Rocxb.): 8 | Herbicidal effects index number, Monochoria vaginalis (Monochoria vaginalis): 10 | Herbicidal effects index number, Echinochloa oryzicola (Echinochloa oryzicola): 8 | herbicidal effect index, Abutilon theophrasti (Indian millet [4]): 10

Cc1cc(Cl)cc(-n2c(=O)c(C(=O)C3=C(O)CCCC3=O)nn(C)c2=O)c1 [I-126]
herbicidal effect index, Setaria viridis (Setaria viridis): 7 | herbicidal effect index, Abutilon theophrasti (Indian millet [1]): 9 | herbicidal effect index, Amaranthus retroflexus (A. retroflexus [2]): 10 | herbicidal effect index, S. juncoides Rocxb. (Scirpus juncoides Rocxb.): 10 | Herbicidal effects index number, Monochoria vaginalis (Monochoria vaginalis): 10 | Herbicidal effects index number, Echinochloa oryzicola (Echinochloa oryzicola): 10 | herbicidal effect index, Echinochloa crus-galli (Echinochloa crus-galli [3]): 9 | herbicidal effect index, Abutilon theophrasti (Indian millet [4]): 10 | herbicidal effect index, Amaranthus retroflexus (A. retroflexus [5]): 10

Cn1nc(C(=O)C2=C(O)CCCC2=O)c(=O)n(CC(=O)C(C)(C)C)c1=O [I-468]
herbicidal effect index, Setaria viridis (Setaria viridis): 9 | herbicidal effect index, Abutilon theophrasti (Indian millet [1]): 10 | herbicidal effect index, Amaranthus retroflexus (A. retroflexus [2]): 10 | herbicidal effect index, S. juncoides Rocxb. (Scirpus juncoides Rocxb.): 10 | Herbicidal effects index number, Monochoria vaginalis (Monochoria vaginalis): 10 | Herbicidal effects index number, Echinochloa oryzicola (Echinochloa oryzicola): 10 | herbicidal effect index, Echinochloa crus-galli (Echinochloa crus-galli [3]): 9 | herbicidal effect index, Amaranthus retroflexus (A. retroflexus [5]): 7

Cn1nc(C(=O)C2=C(O)CCCC2=O)c(=O)n(-c2cc(Cl)c(Cl)c(Cl)c2)c1=O [I-465]
herbicidal effect index, Setaria viridis (Setaria viridis): 10 | herbicidal effect index, Abutilon theophrasti (Indian millet [1]): 10 | herbicidal effect index, Amaranthus retroflexus (A. retroflexus [2]): 10 | herbicidal effect index, S. juncoides Rocxb. (Scirpus juncoides Rocxb.): 10 | Herbicidal effects index number, Monochoria vaginalis (Monochoria vaginalis): 10 | Herbicidal effects index number, Echinochloa oryzicola (Echinochloa oryzicola): 10 | herbicidal effect index, Echinochloa crus-galli (Echinochloa crus-galli [3]): 8 | herbicidal effect index, Abutilon theophrasti (Indian millet [4]): 10 | herbicidal effect index, Amaranthus retroflexus (A. retroflexus [5]): 10

COc1cc(-n2c(=O)c(C(=O)C3=C(O)CCCC3=O)nn(C)c2=S)cc(OC)c1OC [I-464]
herbicidal effect index, Setaria viridis (Setaria viridis): 7 | herbicidal effect index, Abutilon theophrasti (Indian millet [1]): 10 | herbicidal effect index, Amaranthus retroflexus (A. retroflexus [2]): 10 | herbicidal effect index, S. juncoides Rocxb. (Scirpus juncoides Rocxb.): 10 | Herbicidal effects index number, Monochoria vaginalis (Monochoria vaginalis): 10 | Herbicidal effects index number, Echinochloa oryzicola (Echinochloa oryzicola): 10 | herbicidal effect index, Amaranthus retroflexus (A. retroflexus [5]): 7

CCN(c1ccccc1)n1c(=O)c(C(=O)C2=C(O)CCCC2=O)nn(C)c1=O [I-474]
herbicidal effect index, Abutilon theophrasti (Indian millet [1]): 9 | herbicidal effect index, Amaranthus retroflexus (A. retroflexus [2]): 9 | herbicidal effect index, S. juncoides Rocxb. (Scirpus juncoides Rocxb.): 10 | Herbicidal effects index number, Monochoria vaginalis (Monochoria vaginalis): 10 | Herbicidal effects index number, Echinochloa oryzicola (Echinochloa oryzicola): 10 | herbicidal effect index, Echinochloa crus-galli (Echinochloa crus-galli [3]): 7 | herbicidal effect index, Abutilon theophrasti (Indian millet [4]): 10 | herbicidal effect index, Amaranthus retroflexus (A. retroflexus [5]): 10 | herbicidal effect index, Echinochloa crus-galli (Echinochloa crus-galli [6]): 7

CC(=O)Cn1c(=O)c(C(=O)C2=C(O)CCCC2=O)nn(C)c1=O [I-328]
herbicidal effect index, Setaria viridis (Setaria viridis): 7 | herbicidal effect index, Abutilon theophrasti (Indian millet [1]): 10 | herbicidal effect index, Amaranthus retroflexus (A. retroflexus [2]): 10 | herbicidal effect index, S. juncoides Rocxb. (Scirpus juncoides Rocxb.): 10 | Herbicidal effects index number, Monochoria vaginalis (Monochoria vaginalis): 10 | Herbicidal effects index number, Echinochloa oryzicola (Echinochloa oryzicola): 10 | herbicidal effect index, Echinochloa crus-galli (Echinochloa crus-galli [3]): 7

Cc1cccc(-n2c(=O)c(C(=O)C3=C(O)CCCC3=O)nn(C)c2=O)c1F [I-107]
herbicidal effect index, Abutilon theophrasti (Indian millet [1]): 9 | herbicidal effect index, Amaranthus retroflexus (A. retroflexus [2]): 10 | herbicidal effect index, S. juncoides Rocxb. (Scirpus juncoides Rocxb.): 10 | Herbicidal effects index number, Monochoria vaginalis (Monochoria vaginalis): 10 | Herbicidal effects index number, Echinochloa oryzicola (Echinochloa oryzicola): 10 | herbicidal effect index, Echinochloa crus-galli (Echinochloa crus-galli [3]): 7 | herbicidal effect index, Abutilon theophrasti (Indian millet [4]): 10 | herbicidal effect index, Amaranthus retroflexus (A. retroflexus [5]): 10 | herbicidal effect index, Echinochloa crus-galli (Echinochloa crus-galli [6]): 8

Cc1cc(-n2c(=O)c(C(=O)C3=C(O)CCCC3=O)nn(C)c2=O)ccc1F [I-115]
herbicidal effect index, Abutilon theophrasti (Indian millet [1]): 10 | herbicidal effect index, Amaranthus retroflexus (A. retroflexus [2]): 10 | herbicidal effect index, S. juncoides Rocxb. (Scirpus juncoides Rocxb.): 10 | Herbicidal effects index number, Monochoria vaginalis (Monochoria vaginalis): 10 | Herbicidal effects index number, Echinochloa oryzicola (Echinochloa oryzicola): 10 | herbicidal effect index, Echinochloa crus-galli (Echinochloa crus-galli [3]): 10 | herbicidal effect index, Abutilon theophrasti (Indian millet [4]): 9 | herbicidal effect index, Amaranthus retroflexus (A. retroflexus [5]): 9 | herbicidal effect index, Echinochloa crus-galli (Echinochloa crus-galli [6]): 9

CCN(c1ccccc1)n1c(=O)c(C(=O)O)nn(C)c1=O [V-368]
herbicidal effect index, Abutilon theophrasti (Indian millet [1]): 9 | herbicidal effect index, Amaranthus retroflexus (A. retroflexus [2]): 9 | herbicidal effect index, S. juncoides Rocxb. (Scirpus juncoides Rocxb.): 10 | Herbicidal effects index number, Monochoria vaginalis (Monochoria vaginalis): 10 | Herbicidal effects index number, Echinochloa oryzicola (Echinochloa oryzicola): 10 | herbicidal effect index, Echinochloa crus-galli (Echinochloa crus-galli [3]): 7 | herbicidal effect index, Abutilon theophrasti (Indian millet [4]): 10 | herbicidal effect index, Amaranthus retroflexus (A. retroflexus [5]): 10 | herbicidal effect index, Echinochloa crus-galli (Echinochloa crus-galli [6]): 7

Cn1nc(C(=O)C2=C(O)CCCC2=O)c(=O)n(-c2c(F)c(F)cc(F)c2F)c1=O [I-469]
herbicidal effect index, Setaria viridis (Setaria viridis): 10 | herbicidal effect index, Abutilon theophrasti (Indian millet [1]): 10 | herbicidal effect index, Amaranthus retroflexus (A. retroflexus [2]): 10 | herbicidal effect index, S. juncoides Rocxb. (Scirpus juncoides Rocxb.): 10 | Herbicidal effects index number, Monochoria vaginalis (Monochoria vaginalis): 10 | Herbicidal effects index number, Echinochloa oryzicola (Echinochloa oryzicola): 10 | herbicidal effect index, Echinochloa crus-galli (Echinochloa crus-galli [3]): 10

Cc1cc(C)cc(-n2c(=O)c(C(=O)C3=C(O)CCCC3=O)nn(C)c2=O)c1 [I-88]
herbicidal effect index, Abutilon theophrasti (Indian millet [1]): 9 | herbicidal effect index, Amaranthus retroflexus (A. retroflexus [2]): 10 | herbicidal effect index, S. juncoides Rocxb. (Scirpus juncoides Rocxb.): 10 | Herbicidal effects index number, Monochoria vaginalis (Monochoria vaginalis): 10 | Herbicidal effects index number, Echinochloa oryzicola (Echinochloa oryzicola): 10 | herbicidal effect index, Echinochloa crus-galli (Echinochloa crus-galli [3]): 8 | herbicidal effect index, Abutilon theophrasti (Indian millet [4]): 10 | herbicidal effect index, Amaranthus retroflexus (A. retroflexus [5]): 10 | herbicidal effect index, Echinochloa crus-galli (Echinochloa crus-galli [6]): 8

O=C1CCCC(O)=C1C(=O)c1nn(CC(F)(F)F)c(=O)n(-c2ccccc2)c1=O [I-477]
herbicidal effect index, Abutilon theophrasti (Indian millet [1]): 9 | herbicidal effect index, Amaranthus retroflexus (A. retroflexus [2]): 10 | herbicidal effect index, S. juncoides Rocxb. (Scirpus juncoides Rocxb.): 10 | Herbicidal effects index number, Monochoria vaginalis (Monochoria vaginalis): 10 | Herbicidal effects index number, Echinochloa oryzicola (Echinochloa oryzicola): 10 | herbicidal effect index, Echinochloa crus-galli (Echinochloa crus-galli [3]): 9 | herbicidal effect index, Abutilon theophrasti (Indian millet [4]): 10 | herbicidal effect index, Amaranthus retroflexus (A. retroflexus [5]): 10 | herbicidal effect index, Echinochloa crus-galli (Echinochloa crus-galli [6]): 9

Cn1nc(C(=O)C2=C(O)CCCC2=O)c(=O)n(-c2cccs2)c1=O [I-198]
herbicidal effect index, Abutilon theophrasti (Indian millet [1]): 10 | herbicidal effect index, Amaranthus retroflexus (A. retroflexus [2]): 10 | herbicidal effect index, S. juncoides Rocxb. (Scirpus juncoides Rocxb.): 10 | Herbicidal effects index number, Monochoria vaginalis (Monochoria vaginalis): 10 | Herbicidal effects index number, Echinochloa oryzicola (Echinochloa oryzicola): 8 | herbicidal effect index, Echinochloa crus-galli (Echinochloa crus-galli [3]): 10 | herbicidal effect index, Abutilon theophrasti (Indian millet [4]): 10 | herbicidal effect index, Amaranthus retroflexus (A. retroflexus [5]): 10 | herbicidal effect index, Echinochloa crus-galli (Echinochloa crus-galli [6]): 7

COc1cc(-n2c(=O)c(C(=O)C3=C(O)C(C)(C)C(=O)C(C)(C)C3=O)nn(C)c2=O)cc(OC)c1OC [VI-97]
herbicidal effect index, Setaria viridis (Setaria viridis): 10 | herbicidal effect index, Abutilon theophrasti (Indian millet [1]): 10 | herbicidal effect index, Amaranthus retroflexus (A. retroflexus [2]): 10 | herbicidal effect index, S. juncoides Rocxb. (Scirpus juncoides Rocxb.): 10 | Herbicidal effects index number, Monochoria vaginalis (Monochoria vaginalis): 10 | Herbicidal effects index number, Echinochloa oryzicola (Echinochloa oryzicola): 10 | herbicidal effect index, Echinochloa crus-galli (Echinochloa crus-galli [3]): 7
